The values below come from patent US20080096922A1, “Novel Sulfonamide derivative” (Dainippon Sumitomo Pharma Co., Ltd., priority 2004, published 2008).

Counter-ions that a name gives are not always drawn.

One assay relates to LDL receptor protein. The assay is described as follows: Measurement of an expression of a LDL receptor (immunoblotting, HepG2). The conditions noted are these: HepG2 cell, test compound at 0.1 and 1 μM, compared to a control group. In kind it is cell-based, human. Here is the method: The activity of potentiating an expression of a LDL receptor by the test compounds were measured using a human hepatic cell line HepG2. Cells were seeded in a 6 well plate at the density of 7.5×10^5 cells/well (at first day). On third days, the medium was changed to a medium containing lipoprotein-deficient serum and the test compound. On forth days, the cells were scraped and collected by a centrifugation. The recovered cells were dissolved in a cell lysate buffer containing 0.1% TritonX-100 and after centrifugation, the supernatant was used as a solution of cell protein. The amount of the LDL-R protein was evaluated by an immunoblotting method using the above-prepared solution of cell protein.
After treating the HepG2 cell with the compound of Example 1-2, the amount of LDL receptor protein was detected by an immunoblotting method.
(In general: A western blot detects proteins with antibodies after separation by electrophoresis.)

The next assay deals with LDL receptor. The experiment in a line: Effects on an activity of a LDL receptor: uptake amount of DiI-LDL into HepG2 cell. In kind it is cell-based, human. As to conditions: control group as 100%. On the procedure: The 1,1′-dioctadecyl-3,3,3′,3′-tetramethylindocarbocyanine perchlorate (DiI)-labeled LDL (DiI-LDL) was prepared as follows. That is, a DiI (Invitrogen Corp., U.S.A) was mixed with a human LDL (Chemicon International, Inc., U.S.A) and the mixture was incubated at 37° C. for 8 hours. […] After centrifugation, the DiI-labeled LDL fraction was separated and dialyzed with a physiological saline to prepare the above desired solution.
The effects on a LDL receptor activity were determined as the uptake amount of DiI-LDL into HepG2 cell. The cultured human hepatic cell line HepG2 cell was purchased from the Dainippon Pharmaceuticals Co. Ltd. (Osaka, Japan). The HepG2 cells were seeded in a 96 well plate and were incubated in the Dulbecco's modified Eagle/F-12 (DMEM/F-12) medium containing 10% fetal bovine serum and antibiotics in a CO2 incubator at 37° C. for two to three days. After washing the cells, a DMEM/F-12 medium containing 5-10% lipoprotein-deficient serum, the test substrate and the antibiotics were added thereto and the cells were incubated at 37° C. for 19 hours. After adding DiI-LDL, the cells were incubated in a CO2 incubator at 37° C. for another 5 hours. The uptake amount of non-specific DiI-LDL was measured by adding 30 to 50 folds amount of the non-labeled LDL. After washing the cells with Dulbecco's phosphate buffer (Sigma Corp., U.S.A.), the Dulbecco's phosphate buffer was added to each well and then the uptake amount of DiI-LDL into the cell line were measured as the value of fluorescence. After measuring the fluorescence, the Dulbecco's phosphate buffer was removed and thereto was added 1N sodium hydroxide solution to dissolve the cells and the amount of protein was measured by using a part of the resulting solution. The effect on a LDL receptor activity by each compound was determined by calculating the ratio of the amount of fluorescence/the amount of protein, and by subtracting the non-specific uptake amount therefrom and then calculating the control group as 100%.

As to `COc1cccc(C2(C(=O)NS(=O)(=O)Oc3c(C(C)C)cccc3C(C)C)CCN(c3ccccc3OC)CC2)c1` [Example 1-2, 2,6-diisopropylphenyl {[1-(2-methoxyphenyl)-4-(3-methoxyphenyl)piperidin-4-yl]carbonyl}sulfamate], the “amount of a LDL receptor protein” value in the assay with LDL receptor protein is “superior increasing effect”. Moreover, the “Activity of (%) LDL receptor” value in the assay on LDL receptor (10 μM) is 124%.

For the compound `CNS(=O)(=O)NC[C@]1(c2cccc(OC)c2)CC[C@H](NCc2ccc(-c3ccccc3)cc2)CC1.Cl` [Example 49, N-{[cis-4-[(biphenyl-4-ylmethyl)amino]-1-(3-methoxyphenyl)cyclohexyl]methyl}-N′-methylsulfamide hydrochloride], the “Activity of (%) LDL receptor” value with LDL receptor (1 μM) came to 208%.

Regarding `COc1cccc([C@]2(CNS(N)(=O)=O)CC[C@H](NC3CCN(Cc4ccccc4)CC3)CC2)c1` [Example 55, N-{[trans-4-[(1-benzylpiperidin-4-yl)amino]-1-(3-methoxyphenyl)cyclohexyl]methyl}sulfamide dihydrochloride], the “Activity of (%) LDL receptor” value in the assay with LDL receptor (10 μM) worked out at 140%.

`COc1cccc(C2(C(=O)NS(=O)(=O)Oc3c(C(C)C)cccc3C(C)C)CC3CCCC(C2)N3c2ccccc2OC)c1.Cl` (centres unmarked) [Example 57, 2,6-diisopropylphenyl {[9-(2-methoxyphenyl)-3-(3-methoxyphenyl)-9-azabicyclo[3.3.1]nonan-3-yl]carbonyl}sulfamate hydrochloride]: the “Activity of (%) LDL receptor” value in the assay on LDL receptor (3 μM) came to 124%.
